From BigSolDB 2.1

c1ccc(-c2cc3ccccc3[nH]2)cc1
Conditions	solubility (mole fraction)
in 1,2-dichloroethane, 296.95 K	0.0186
in 1,2-dichloroethane, 302.45 K	0.0236
in 1,2-dichloroethane, 308.55 K	0.0285
in 1,2-dichloroethane, 313.15 K	0.0325
in 1,2-dichloroethane, 318.25 K	0.0373
in 1,2-dichloroethane, 323.25 K	0.0422
in 1,2-dichloroethane, 329.05 K	0.0498
in 1,2-dichloroethane, 334.05 K	0.0575
in 1,2-dichloroethane, 338.55 K	0.0666
in 1,4-dioxane, 289.05 K	0.0403
in 1,4-dioxane, 293.15 K	0.0507
in 1,4-dioxane, 299.15 K	0.0625
in 1,4-dioxane, 303.95 K	0.0735
in 1,4-dioxane, 308.95 K	0.0903
in 1,4-dioxane, 313.65 K	0.114
in 1,4-dioxane, 318.65 K	0.145
in 1,4-dioxane, 324.05 K	0.172
in 1,4-dioxane, 329.35 K	0.201
in 1,4-dioxane, 334.15 K	0.239
in MTBE, 289.05 K	0.0337
in MTBE, 293.15 K	0.0351
in MTBE, 299.15 K	0.0383
in MTBE, 303.95 K	0.0406
in MTBE, 308.95 K	0.0428
in MTBE, 313.65 K	0.0452
in MTBE, 318.65 K	0.049
in MTBE, 324.05 K	0.0522
in MTBE, 329.35 K	0.0558
in MTBE, 334.15 K	0.0596
in THF, 289.05 K	0.187
in THF, 293.15 K	0.194
in THF, 299.15 K	0.203
in THF, 303.95 K	0.211
in THF, 308.95 K	0.218
in THF, 313.65 K	0.225
in THF, 318.65 K	0.232
in THF, 324.05 K	0.24
in THF, 329.35 K	0.248
in THF, 334.15 K	0.256
in acetone, 289.05 K	0.0951
in acetone, 293.15 K	0.106
in acetone, 299.15 K	0.111
in acetone, 303.95 K	0.122
in acetone, 308.95 K	0.132
in acetone, 313.65 K	0.142
in acetone, 318.65 K	0.15
in acetone, 324.05 K	0.16
in acetone, 329.35 K	0.172
in acetonitrile, 289.05 K	0.0144
in acetonitrile, 293.15 K	0.0164
in acetonitrile, 299.15 K	0.02
in acetonitrile, 303.95 K	0.0237
in acetonitrile, 308.95 K	0.0283
in acetonitrile, 313.65 K	0.0328
in acetonitrile, 318.65 K	0.038
in acetonitrile, 324.05 K	0.0446
in acetonitrile, 329.35 K	0.0533
in acetonitrile, 334.15 K	0.0604
in ethanol, 296.95 K	0.0109
in ethanol, 302.45 K	0.012
in ethanol, 308.55 K	0.014
in ethanol, 313.15 K	0.0154
in ethanol, 318.25 K	0.0173
in ethanol, 323.25 K	0.0187
in ethanol, 329.05 K	0.0217
in ethanol, 334.05 K	0.0249
in ethanol, 338.55 K	0.0274
in ethyl acetate, 289.05 K	0.0634
in ethyl acetate, 293.15 K	0.0694
in ethyl acetate, 299.15 K	0.0761
in ethyl acetate, 303.95 K	0.0814
in ethyl acetate, 308.95 K	0.0879
in ethyl acetate, 313.65 K	0.0951
in ethyl acetate, 318.65 K	0.101
in ethyl acetate, 324.05 K	0.11
in ethyl acetate, 329.35 K	0.119
in ethyl acetate, 334.15 K	0.128
in isopropanol, 296.95 K	0.00786
in isopropanol, 302.45 K	0.00963
in isopropanol, 308.55 K	0.0115
in isopropanol, 313.15 K	0.0125
in isopropanol, 318.25 K	0.0148
in isopropanol, 323.25 K	0.0168
in isopropanol, 329.05 K	0.0185
in isopropanol, 334.05 K	0.0218
in isopropanol, 338.55 K	0.0233
in methanol, 296.95 K	0.00571
in methanol, 302.45 K	0.00709
in methanol, 308.55 K	0.00835
in methanol, 313.15 K	0.00941
in methanol, 318.25 K	0.0107
in methanol, 323.25 K	0.0119
in methanol, 329.05 K	0.0136
in methanol, 334.05 K	0.016
in methanol, 338.55 K	0.017
in n-butanol, 296.95 K	0.0123
in n-butanol, 302.45 K	0.0141
in n-butanol, 308.55 K	0.0163
in n-butanol, 313.15 K	0.0181
in n-butanol, 318.25 K	0.0212
in n-butanol, 323.25 K	0.0241
in n-butanol, 329.05 K	0.0276
in n-butanol, 334.05 K	0.0311
in n-butanol, 338.55 K	0.0357
in n-propanol, 296.95 K	0.0104
in n-propanol, 302.45 K	0.012
in n-propanol, 308.55 K	0.0134
in n-propanol, 313.15 K	0.0156
in n-propanol, 318.25 K	0.0177
in n-propanol, 323.25 K	0.0206
in n-propanol, 329.05 K	0.0233
in n-propanol, 334.05 K	0.0269
in n-propanol, 338.55 K	0.03
in sec-butanol, 296.95 K	0.00879
in sec-butanol, 302.45 K	0.0111
in sec-butanol, 308.55 K	0.014
in sec-butanol, 313.15 K	0.0157
in sec-butanol, 318.25 K	0.0182
in sec-butanol, 323.25 K	0.022
in sec-butanol, 329.05 K	0.0271
in sec-butanol, 334.05 K	0.0307
in sec-butanol, 338.55 K	0.0353
in toluene, 289.05 K	0.00911
in toluene, 293.15 K	0.0101
in toluene, 299.15 K	0.0122
in toluene, 303.95 K	0.0141
in toluene, 308.95 K	0.0167
in toluene, 313.65 K	0.0191
in toluene, 318.65 K	0.0222
in toluene, 324.05 K	0.0255
in toluene, 329.35 K	0.0298
in toluene, 334.15 K	0.0342
